{"source": "patent US11959486B2", "about": "“Stable liquid formulation of AMG 416 (etelcalcetide)” (AMGEN INC., priority 2013, dated 2024)", "experiment": "Stability of liquid formulations over range of pH 2-6 in succinate-buffered saline, HPLC purity, with extrapolation (Example 3)", "format": "physicochemical", "conditions": "2.5 mg/mL", "method": "The solution was divided evenly into five 4 mL portions which were adjusted to pH 2, 3, 4, 5 and 6, respectively, with NaOH and HCl as needed. Three 1 mL solutions were aliquoted from each portion and incubated at 2-8° C., room temperature (about 25° C.), and 40° C., respectively. The remaining 1 mL solution in each aliquot was diluted with pH 4.5 succinate buffered saline to 4 mL of 2.5 mg/mL peptide concentration, pH adjusted, and incubated in the same manner.\nBased on the extent of degradation at 28 days, predictions of the extent of degradation were calculated as described, supra. Bolded values indicate conditions which show less than 10% degradation, and which may be preferred for a liquid formulation. Conditions where the sample at 28 days show slightly higher purity than the initial data are presented as 0.0% for all projections.\nAt each pH value, the degradation data for each of three temperatures is compared to data from the other two temperatures to calculate the observed acceleration. The predicted acceleration is by simple application of Arrhenius principles as described above."}
{"smiles": "CC(=O)N[C@H](CSSC[C@H](N)C(=O)O)C(=O)N[C@H](C)C(=O)N[C@H](CCCNC(=N)N)C(=O)N[C@H](CCCNC(=N)N)C(=O)N[C@H](CCCNC(=N)N)C(=O)N[C@H](C)C(=O)N[C@H](CCCNC(=N)N)C(N)=O", "note": "[AMG 416, N-acetyl-D-cysteinyl-D-alanyl-D-arginyl-D-arginyl-D-arginyl-D-alanyl-D-arginamide disulfide with L-cysteine]", "values": [{"measurement": "Observed degradation at 28 days", "setting": "pH 2, 2-8° C.", "result": 0.0, "unit": "%"}, {"measurement": "Observed degradation at 28 days", "setting": "pH 2, 40° C.", "result": 9.1, "unit": "%"}, {"measurement": "Observed degradation at 28 days", "setting": "pH 2, RT", "result": 0.6, "unit": "%"}, {"measurement": "Calculated Degradation 1 y 2-8° C.", "setting": "pH 2, from 2-8° C. data", "result": 0.0, "unit": "%"}, {"measurement": "Calculated Degradation 1 y RT", "setting": "pH 2, from 2-8° C. data", "result": 0.0, "unit": "%"}, {"measurement": "Calculated Degradation 2 y 2-8° C.", "setting": "pH 2, from 2-8° C. data", "result": 0.0, "unit": "%"}, {"measurement": "Calculated Degradation 2 y RT", "setting": "pH 2, from 2-8° C. data", "result": 0.0, "unit": "%"}, {"measurement": "Calculated Degradation 1 y", "setting": "pH 2, from 40° C. data", "result": 116.5, "unit": "%"}, {"measurement": "Calculated Degradation 1 y RT", "setting": "pH 2, from 40° C. data", "result": 29.1, "unit": "%"}, {"measurement": "Calculated Degradation 2 y 2-8° C.", "setting": "pH 2, from 40° C. data", "result": 14.6, "unit": "%"}, {"measurement": "Calculated Degradation 2 y RT", "setting": "pH 2, from 40° C. data", "result": 58.3, "unit": "%"}, {"measurement": "Calculated Degradation 1 y", "setting": "pH 2, from RT data", "result": 7.9, "unit": "%"}, {"measurement": "Calculated Degradation 1 y RT", "setting": "pH 2, from RT data", "result": 7.9, "unit": "%"}, {"measurement": "Calculated Degradation 2 y 2-8° C.", "setting": "pH 2, from RT data", "result": 4.0, "unit": "%"}, {"measurement": "Calculated Degradation 2 y RT", "setting": "pH 2, from RT data", "result": 15.9, "unit": "%"}, {"measurement": "Observed degradation at 28 days", "setting": "pH 3, 2-8° C.", "result": 0.0, "unit": "%"}, {"measurement": "Observed degradation at 28 days", "setting": "pH 3, 40° C.", "result": 1.8, "unit": "%"}, {"measurement": "Observed degradation at 28 days", "setting": "pH 3, RT", "result": 0.0, "unit": "%"}, {"measurement": "Calculated Degradation 1 y 2-8° C.", "setting": "pH 3, from 2-8° C. data", "result": 0.0, "unit": "%"}, {"measurement": "Calculated Degradation 1 y RT", "setting": "pH 3, from 2-8° C. data", "result": 0.0, "unit": "%"}, {"measurement": "Calculated Degradation 2 y 2-8° C.", "setting": "pH 3, from 2-8° C. data", "result": 0.0, "unit": "%"}, {"measurement": "Calculated Degradation 2 y RT", "setting": "pH 3, from 2-8° C. data", "result": 0.0, "unit": "%"}, {"measurement": "Calculated Degradation 1 y", "setting": "pH 3, from 40° C. data", "result": 22.5, "unit": "%"}, {"measurement": "Calculated Degradation 1 y RT", "setting": "pH 3, from 40° C. data", "result": 5.6, "unit": "%"}, {"measurement": "Calculated Degradation 2 y 2-8° C.", "setting": "pH 3, from 40° C. data", "result": 2.8, "unit": "%"}, {"measurement": "Calculated Degradation 2 y RT", "setting": "pH 3, from 40° C. data", "result": 11.3, "unit": "%"}, {"measurement": "Calculated Degradation 1 y", "setting": "pH 3, from RT data", "result": 0.0, "unit": "%"}, {"measurement": "Calculated Degradation 1 y RT", "setting": "pH 3, from RT data", "result": 0.0, "unit": "%"}, {"measurement": "Calculated Degradation 2 y 2-8° C.", "setting": "pH 3, from RT data", "result": 0.0, "unit": "%"}, {"measurement": "Calculated Degradation 2 y RT", "setting": "pH 3, from RT data", "result": 0.0, "unit": "%"}, {"measurement": "Observed degradation at 28 days", "setting": "pH 4, 2-8° C.", "result": "−0.1", "unit": "%"}, {"measurement": "Observed degradation at 28 days", "setting": "pH 4, 40° C.", "result": 6.9, "unit": "%"}, {"measurement": "Observed degradation at 28 days", "setting": "pH 4, RT", "result": 0.3, "unit": "%"}, {"measurement": "Calculated Degradation 1 y 2-8° C.", "setting": "pH 4, from 2-8° C. data", "result": 0.0, "unit": "%"}, {"measurement": "Calculated Degradation 1 y RT", "setting": "pH 4, from 2-8° C. data", "result": 0.0, "unit": "%"}, {"measurement": "Calculated Degradation 2 y 2-8° C.", "setting": "pH 4, from 2-8° C. data", "result": 0.0, "unit": "%"}, {"measurement": "Calculated Degradation 2 y RT", "setting": "pH 4, from 2-8° C. data", "result": 0.0, "unit": "%"}, {"measurement": "Calculated Degradation 1 y", "setting": "pH 4, from 40° C. data", "result": 88.7, "unit": "%"}, {"measurement": "Calculated Degradation 1 y RT", "setting": "pH 4, from 40° C. data", "result": 22.2, "unit": "%"}, {"measurement": "Calculated Degradation 2 y 2-8° C.", "setting": "pH 4, from 40° C. data", "result": 11.1, "unit": "%"}, {"measurement": "Calculated Degradation 2 y RT", "setting": "pH 4, from 40° C. data", "result": 44.3, "unit": "%"}, {"measurement": "Calculated Degradation 1 y", "setting": "pH 4, from RT data", "result": 3.6, "unit": "%"}, {"measurement": "Calculated Degradation 1 y RT", "setting": "pH 4, from RT data", "result": 3.6, "unit": "%"}, {"measurement": "Calculated Degradation 2 y 2-8° C.", "setting": "pH 4, from RT data", "result": 1.8, "unit": "%"}, {"measurement": "Calculated Degradation 2 y RT", "setting": "pH 4, from RT data", "result": 7.2, "unit": "%"}, {"measurement": "Observed degradation at 28 days", "setting": "pH 5, 2-8° C.", "result": 0.2, "unit": "%"}, {"measurement": "Observed degradation at 28 days", "setting": "pH 5, 40° C.", "result": 26.1, "unit": "%"}, {"measurement": "Observed degradation at 28 days", "setting": "pH 5, RT", "result": 2.9, "unit": "%"}, {"measurement": "Calculated Degradation 1 y 2-8° C.", "setting": "pH 5, from 2-8° C. data", "result": 2.9, "unit": "%"}, {"measurement": "Calculated Degradation 1 y RT", "setting": "pH 5, from 2-8° C. data", "result": 11.8, "unit": "%"}, {"measurement": "Calculated Degradation 2 y 2-8° C.", "setting": "pH 5, from 2-8° C. data", "result": 5.9, "unit": "%"}, {"measurement": "Calculated Degradation 2 y RT", "setting": "pH 5, from 2-8° C. data", "result": 23.5, "unit": "%"}, {"measurement": "Calculated Degradation 1 y", "setting": "pH 5, from 40° C. data", "result": 333.6, "unit": "%"}, {"measurement": "Calculated Degradation 1 y RT", "setting": "pH 5, from 40° C. data", "result": 83.4, "unit": "%"}, {"measurement": "Calculated Degradation 2 y 2-8° C.", "setting": "pH 5, from 40° C. data", "result": 41.7, "unit": "%"}, {"measurement": "Calculated Degradation 2 y RT", "setting": "pH 5, from 40° C. data", "result": 166.8, "unit": "%"}, {"measurement": "Calculated Degradation 1 y", "setting": "pH 5, from RT data", "result": 37.7, "unit": "%"}, {"measurement": "Calculated Degradation 1 y RT", "setting": "pH 5, from RT data", "result": 37.7, "unit": "%"}, {"measurement": "Calculated Degradation 2 y 2-8° C.", "setting": "pH 5, from RT data", "result": 18.9, "unit": "%"}, {"measurement": "Calculated Degradation 2 y RT", "setting": "pH 5, from RT data", "result": 75.5, "unit": "%"}, {"measurement": "Observed degradation at 28 days", "setting": "pH 6, 2-8° C.", "result": 0.8, "unit": "%"}, {"measurement": "Observed degradation at 28 days", "setting": "pH 6, 40° C.", "result": 45.0, "unit": "%"}, {"measurement": "Observed degradation at 28 days", "setting": "pH 6, RT", "result": 18.1, "unit": "%"}, {"measurement": "Calculated Degradation 1 y 2-8° C.", "setting": "pH 6, from 2-8° C. data", "result": 10.7, "unit": "%"}, {"measurement": "Calculated Degradation 1 y RT", "setting": "pH 6, from 2-8° C. data", "result": 43.0, "unit": "%"}, {"measurement": "Calculated Degradation 2 y 2-8° C.", "setting": "pH 6, from 2-8° C. data", "result": 21.5, "unit": "%"}, {"measurement": "Calculated Degradation 2 y RT", "setting": "pH 6, from 2-8° C. data", "result": 86.0, "unit": "%"}, {"measurement": "Calculated Degradation 1 y", "setting": "pH 6, from 40° C. data", "result": 575.7, "unit": "%"}, {"measurement": "Calculated Degradation 1 y RT", "setting": "pH 6, from 40° C. data", "result": 143.9, "unit": "%"}, {"measurement": "Calculated Degradation 2 y 2-8° C.", "setting": "pH 6, from 40° C. data", "result": 72.0, "unit": "%"}, {"measurement": "Calculated Degradation 2 y RT", "setting": "pH 6, from 40° C. data", "result": 287.8, "unit": "%"}, {"measurement": "Calculated Degradation 1 y", "setting": "pH 6, from RT data", "result": 231.0, "unit": "%"}, {"measurement": "Calculated Degradation 1 y RT", "setting": "pH 6, from RT data", "result": 231.0, "unit": "%"}, {"measurement": "Calculated Degradation 2 y 2-8° C.", "setting": "pH 6, from RT data", "result": 115.5, "unit": "%"}, {"measurement": "Calculated Degradation 2 y RT", "setting": "pH 6, from RT data", "result": 462.1, "unit": "%"}, {"measurement": "predicted degradation over 2 years at RT", "setting": "pH range 2-4, extrapolated from the 2-8° C. data", "result": "less than 10%"}]}
